Results as given in PubChem BioAssay AID330 (DTP/NCI, 2004).
Where “and” joins values, the source holds several entries; their conditions need not be identical. Identical values can stand only once. Toxic doses and inconclusive results are not listed. The calls were made as follows: active = survival T/C of 150% or more; inactive = T/C below 125% in these data.

Test system: P388 leukemia ip, CD2F1 mice, survival T/C
Experiment: NCI In Vivo Anticancer Drug Screen. Data for tumor model P388 Leukemia (intraperitoneal) in CD2F1 (CDF1) mice
Settings: endpoint: median survival time, higher = longer survival
How it was run: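 Mice carrying the transplanted tumor received test compound or vehicle. Survival was recorded in each group, and the value is the treated-group measurement divided by that of the vehicle-treated control group.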

[1] = dose: 25.0 mg/kg/injection, schedule: Q01DX009 (ip), vehicle: saline with Tween-80
[2] = dose: 50.0 mg/kg/injection, schedule: Q01DX009 (ip), vehicle: saline with Tween-80
[3] = dose: 50.0 mg/kg/injection, schedule: Q01DX005 (ip), vehicle: Klucel (hydroxypropylcellulose) (HPC)
[4] = dose: 100.0 mg/kg/injection, schedule: Q01DX005 (ip), vehicle: Klucel (hydroxypropylcellulose) (HPC)
[5] = dose: 100.0 mg/kg/injection, schedule: Q04DX003 (ip), vehicle: Klucel (hydroxypropylcellulose) (HPC)
[6] = dose: 200.0 mg/kg/injection, schedule: Q01DX005 (ip), vehicle: Klucel (hydroxypropylcellulose) (HPC)
[7] = dose: 200.0 mg/kg/injection, schedule: Q04DX003 (ip), vehicle: Klucel (hydroxypropylcellulose) (HPC)
[8] = dose: 400.0 mg/kg/injection, schedule: Q04DX003 (ip), vehicle: Klucel (hydroxypropylcellulose) (HPC)
[9] = dose: 50.0 mg/kg/injection, schedule: Q01DX005 (ip), vehicle: saline with Tween-80
[10] = dose: 100.0 mg/kg/injection, schedule: Q01DX005 (ip), vehicle: saline with Tween-80
[11] = dose: 50.0 mg/kg/injection, schedule: Q01DX009 (ip), vehicle: saline
[12] = dose: 60.0 mg/kg/injection, schedule: Q01DX005 (ip), vehicle: Klucel (hydroxypropylcellulose) (HPC)
[13] = dose: 120.0 mg/kg/injection, schedule: Q01DX005 (ip), vehicle: Klucel (hydroxypropylcellulose) (HPC)
[14] = dose: 240.0 mg/kg/injection, schedule: Q01DX005 (ip), vehicle: Klucel (hydroxypropylcellulose) (HPC)
[15] = dose: 60.0 mg/kg/injection, schedule: Q01DX005 (ip), vehicle: saline with Tween-80
[16] = dose: 120.0 mg/kg/injection, schedule: Q01DX005 (ip), vehicle: saline with Tween-80
[17] = dose: 50.0 mg/kg/injection, schedule: Q01DX009 (ip), vehicle: Klucel (hydroxypropylcellulose) (HPC)
[18] = dose: 100.0 mg/kg/injection, schedule: Q01DX009 (ip), vehicle: Klucel (hydroxypropylcellulose) (HPC)
[19] = dose: 100.0 mg/kg/injection, schedule: Q01DX009 (ip), vehicle: saline
[20] = dose: 200.0 mg/kg/injection, schedule: Q01DX009 (ip), vehicle: saline
[21] = dose: 200.0 mg/kg/injection, schedule: Q01DX009 (ip), vehicle: Klucel (hydroxypropylcellulose) (HPC)

Measured: T/C

Cc1c(C)c(C)c2c(c1C)CCC2O (stereo not drawn)
inactive: dose: 12.5 mg/kg/injection, schedule: Q01DX009 (ip), vehicle: saline with Tween-80 102 % of control and 100 % of control | [1] 105 % of control and 102 % of control | [2] 105 % of control and 100 % of control

OC(CCl)Cn1nc2ccccc2n1 (stereo not drawn)
inactive: [3] 96 % of control | [4] 105 % of control | [5] 99 % of control | [6] 103 % of control | [7] 99 % of control | [8] 93 % of control

CN1C(=O)C2(CC2C(=O)c2ccc(Cl)cc2)c2ccccc21 (stereo not drawn)
inactive: dose: 2.5 mg/kg/injection, schedule: Q04DX002 (ip), vehicle: saline with Tween-80 108 % of control | dose: 5.0 mg/kg/injection, schedule: Q04DX002 (ip), vehicle: saline with Tween-80 100 % of control | dose: 10.0 mg/kg/injection, schedule: Q04DX002 (ip), vehicle: saline with Tween-80 99 % of control

CN(C)S(=O)(=O)N1CCOCC1
inactive: dose: 50.0 mg/kg/injection, schedule: Q04DX003 (ip), vehicle: Klucel (hydroxypropylcellulose) (HPC) 95 % of control | [5] 101 % of control | [7] 93 % of control | [8] 110 % of control

CCC(CC)(C(=O)Nc1ccc2c(c1)c(=O)c1ccccc1n2C)C(=O)Nc1ccc2c(c1)c(=O)c1ccccc1n2C
inactive: [9] 100 % of control | [10] 101 % of control | dose: 200.0 mg/kg/injection, schedule: Q01DX005 (ip), vehicle: saline with Tween-80 105 % of control

O/N=C\C[n+]1cc2ccccc2cc1/C=N\O
inactive: [9] 112 % of control | [10] 109 % of control

CCn1c2ccccc2c2cc(N=Nc3cc(C(C)C)c(O)cc3C)ccc21
inactive: dose: 100.0 mg/kg/injection, schedule: Q04DX003 (ip), vehicle: saline with Tween-80 93 % of control | dose: 200.0 mg/kg/injection, schedule: Q04DX003 (ip), vehicle: saline with Tween-80 102 % of control | dose: 400.0 mg/kg/injection, schedule: Q04DX003 (ip), vehicle: saline with Tween-80 102 % of control

CCN(CC)C1=CC(=O)OC1OC (stereo not drawn)
inactive: dose: 60.0 mg/kg/injection, schedule: Q01DX005 (ip), vehicle: saline 95 % of control | dose: 120.0 mg/kg/injection, schedule: Q01DX005 (ip), vehicle: saline 94 % of control

OC(Nc1nccs1)C(F)(F)F (stereo not drawn)
inactive: dose: 12.5 mg/kg/injection, schedule: Q01DX009 (ip), vehicle: saline 99 % of control | dose: 25.0 mg/kg/injection, schedule: Q01DX009 (ip), vehicle: saline 100 % of control | [2] 95 % of control | [11] 101 % of control

COC(=O)C1(C(=O)OC)OC(c2ccc(OC)cc2)[C@H]2C(=O)N(C)C(=O)[C@H]21 (stereo partly drawn)
inactive: [12] 92 % of control | [13] 92 % of control | [14] 89 % of control

c1ccc(C[N+]23CCC(CC2)CC3)cc1
inactive: dose: 3.13 mg/kg/injection, schedule: Q04DX003 (ip), vehicle: saline 95 % of control | dose: 6.25 mg/kg/injection, schedule: Q04DX003 (ip), vehicle: saline 95 % of control | dose: 12.5 mg/kg/injection, schedule: Q04DX003 (ip), vehicle: saline 100 % of control

COC1(OC)C(C#N)(C#N)C2(C(=O)Nc3ccccc32)C1(OC)OC (stereo not drawn)
inactive: [12] 97 % of control | [13] 101 % of control | [14] 103 % of control

CCN1CC2(OC(=O)c3ccccc3NC(C)=O)CCC(OC)C34C1C(CC23)C1(O)CC(OC)C2CC4C1(O)C2OC (stereo not drawn)
inactive: dose: 4.0 mg/kg/injection, schedule: Q01DX009 (ip), vehicle: Klucel (hydroxypropylcellulose) (HPC) 92 % of control | dose: 8.0 mg/kg/injection, schedule: Q01DX009 (ip), vehicle: Klucel (hydroxypropylcellulose) (HPC) 94 % of control | dose: 16.0 mg/kg/injection, schedule: Q01DX009 (ip), vehicle: Klucel (hydroxypropylcellulose) (HPC) 97 % of control | dose: 32.0 mg/kg/injection, schedule: Q01DX009 (ip), vehicle: Klucel (hydroxypropylcellulose) (HPC) 91 % of control

Cc1cc(=O)[nH]c(=O)n1CCCN(C)CCCn1c(C)cc(=O)[nH]c1=O
inactive: [15] 99 % of control | [16] 103 % of control | dose: 240.0 mg/kg/injection, schedule: Q01DX005 (ip), vehicle: saline with Tween-80 102 % of control

Cc1ccc(SC(=O)N2CCN(C(=O)Sc3ccc(C)cc3)CC2)cc1
inactive: [17] 93 % of control | [18] 89 % of control

O=C(O)CNC(=O)C(Cl)Cl
inactive: dose: 50.0 mg/kg/injection, schedule: Q01DX005 (ip), vehicle: saline 100 % of control | dose: 100.0 mg/kg/injection, schedule: Q01DX005 (ip), vehicle: saline 100 % of control | dose: 200.0 mg/kg/injection, schedule: Q01DX005 (ip), vehicle: saline 90 % of control

CC1CN=C(NS(=O)(=O)c2ccccc2)N1 (stereo not drawn)
inactive: [11] 101 % of control | [19] 93 % of control | [20] 92 % of control

NNC(=O)OC12CC3CC(CC(C3)C1)C2
inactive: [1] 110 % of control | [2] 110 % of control

O=C1OC(c2ccccc2)Sc2ccccc21 (stereo not drawn)
inactive: [18] 99 % of control | [21] 95 % of control | dose: 400.0 mg/kg/injection, schedule: Q01DX009 (ip), vehicle: Klucel (hydroxypropylcellulose) (HPC) 92 % of control

CN(/N=C/c1ccc2c(c1)OCO2)c1ccc([N+](=O)[O-])cc1
inactive: [3] 89 % of control | [4] 89 % of control

CCC(=O)N(C)[C@@H]1Oc2ccc(O)cc2[C@]1(C)c1cc(O)ccc1O
inactive: [12] 98 % of control | [13] 97 % of control | [14] 99 % of control

Cc1ccsc1C(=O)c1ccccc1[N+](=O)[O-]
inactive: [3] 94 % of control | [4] 94 % of control | [6] 100 % of control

Nc1nc(N)nc(N/C=C/C(=O)O)n1
inactive: dose: 50.0 mg/kg/injection, schedule: Q01DX005 (ip), vehicle: water 99 % of control | dose: 100.0 mg/kg/injection, schedule: Q01DX005 (ip), vehicle: water 105 % of control | dose: 200.0 mg/kg/injection, schedule: Q01DX005 (ip), vehicle: water 106 % of control

O=C1C(c2ccc3ccccc3n2)=C(O)c2ccccc21
inactive: dose: 15.0 mg/kg/injection, schedule: Q01DX005 (ip), vehicle: Klucel (hydroxypropylcellulose) (HPC) 101 % of control | dose: 30.0 mg/kg/injection, schedule: Q01DX005 (ip), vehicle: Klucel (hydroxypropylcellulose) (HPC) 96 % of control | [12] 101 % of control and 88 % of control

COc1cccc(C(=O)OCCC(C)C)c1O
inactive: [11] 110 % of control | [19] 110 % of control and 92 % of control | [20] 104 % of control and 117 % of control

CSc1cccc(NC(=O)OCCOc2ccc(Cl)cc2)c1
inactive: [17] 102 % of control | [18] 100 % of control | [21] 92 % of control

Cc1ccc(NC(=O)N(C)C)c(C)c1
inactive: [12] 97 % of control | [13] 97 % of control | [14] 94 % of control

Nc1cccc(C(=O)c2ccc(N)c(N)c2)c1
inactive: [15] 90 % of control | [16] 92 % of control

Cc1cc(O)c2c(c1)C(=O)c1c(-c3ccc(O)c4c3C(=O)c3c(O)c(C)cc(O)c3C4=O)ccc(O)c1C2=O
inactive: dose: 3.0 mg/kg/injection, schedule: Q01DX005 (ip), vehicle: Klucel (hydroxypropylcellulose) (HPC) 95 % of control | dose: 6.0 mg/kg/injection, schedule: Q01DX005 (ip), vehicle: Klucel (hydroxypropylcellulose) (HPC) 95 % of control | dose: 12.0 mg/kg/injection, schedule: Q01DX005 (ip), vehicle: Klucel (hydroxypropylcellulose) (HPC) 93 % of control | dose: 24.0 mg/kg/injection, schedule: Q01DX005 (ip), vehicle: Klucel (hydroxypropylcellulose) (HPC) 86 % of control
